Source: publication PMC13198257, “An aerosolized dual-action autotaxin inhibitor-PPARγ agonist for the treatment of pulmonary fibrosis” (Cell Reports Medicine, 2026)

Test system: lung gene expression
Assay: RNA sequencing of lung tissue (BLM/EL244 vs BLM)
Assay type: in vivo, mouse
Settings: lung tissue of BLM-treated mice, BLM/EL244 vs BLM
Experimental: RNA quality was assessed using an Agilent TapeStation 4150 with the High Sensitivity […] ScreenTape (Agilent), according to the manufacturer’s protocols. For library preparation, the QuantSeq 3’mRNA-Seq Library Prep Kit (Lexogen) was used according to manufacturer’s instructions. Briefly, 500 ng of RNA from each sample was used for first-strand synthesis, followed by RNA template removal, and second-strand synthesis initiated by random primers. In-line barcodes were introduced at this step, and this was followed by magnetic bead-based purification. The resulting libraries were amplified for 15 cycles and re-purified, with quantity and quality assessed on a Qubit 4 Fluorometer with the Invitrogen Qubit dsDNA HS Assay and an Agilent Tapestation 4150 with the High Sensitivity D1000 assay kit, respectively. The quantified libraries were pooled equimolarly; 50ng of total library mix was used for Adapter Conversion PCR Amplification using the Universal Library Conversion Kit (App-A), Version: V1.0 (MGI Tech Co., Ltd.), according to the manufacturer’s instructions.
The quantity and quality of the purified adapter conversion PCR (AC-PCR) product were evaluated on a Qubit 4 Fluorometer with the Invitrogen Qubit dsDNA HS Assay and on an Agilent Tapestation 4150 with the High Sensitivity D1000 assay kit, respectively. This was followed by DNA denaturation, Single-Strand Circularisation, Enzymatic Digestion, Enzymatic Digestion Product Cleanup and Quality Control steps on 1 pmol of AC-PCR product, according to the Universal Library Conversion Kit (App-A) User Manual (Version: A3).
Finally, 60 fmol of ssCirDNA were used for DNB preparation and sequencing on a DNBSEQ-G400 platform at the BSRC Alexander Fleming Genomics Facility, using a G400 App-A FCS SE100 High-throughput Sequencing Set (MGI Tech Co., Ltd.), according to the manufacturer’s instructions.
Alignment of the FASTQ files was performed against the mouse genome build mm10 using a custom Bash script.[143] Read counting on the 3′ UTRs and differential expression analysis were conducted using the metaseqR2 bioconductor package.[144] Genes corresponding to the following biotypes were excluded: polymorphic_pseudogene, processed_transcript, pseudogene, IG_V_pseudogene, misc_RNA, IG_C_gene, IG_J_gene, IG_D_gene, IG_LV_gene, TR_V_gene, TR_V_pseudogene, TEC, and processed_pseudogene. Gene counts were normalized with DESEQ[145] through metaseqR2. Genes with more than 10 counts in at least 50% of the samples were kept for further processing. For differential expression analysis, the PANDORA algorithm[146] was used to estimate a meta p-value integrating the results from the DESEQ, DESEQ2,[147] edgeR,[148] limma,[149] NBPSeq,[150] and NOISeq[151] algorithms. All additional parameters were set to default values.
Pathway enrichment analysis was performed for the Gene Ontology Biological process (BP) and Molecular Function (MF) terms through GeneCodis 4.[152] The volcano plots, scatterplots, Venn diagrams, and dot plots were generated using the ggplot2 Bioconductor package.

O=C1NC(=O)C(Cc2ccc(OCCC3CCN(C(=O)OCc4cc(Cl)cc(Cl)c4)CC3)cc2)S1 (centres unmarked) [EL244, 3,5-dichlorobenzyl 4-(2-(4-((2,4-dioxothiazolidin-5-yl)methyl)phenoxy)ethyl)piperidine-1-carboxylate]
Ces2g log2 nFC: 0.83
Ces2g nFC: 1.78
Cfap43 log2 nFC: 0.88
Cfap43 nFC: 1.84
Cfap100 log2 nFC: 0.89
Cfap100 nFC: 1.85
Cfap206 log2 nFC: 0.77
Cfap206 nFC: 1.70
Cftr log2 nFC: 0.96
Cftr nFC: 1.95
Cldn5 log2 nFC: 0.97
Cldn5 nFC: 1.96
Cpm log2 nFC: 0.68
Cpm nFC: 1.60
Crebl2 log2 nFC: 0.79
Crebl2 nFC: 1.73
Crem log2 nFC: 0.68
Crem nFC: 1.60
Crispld2 log2 nFC: 0.80
Crispld2 nFC: 1.74
Cry2 log2 nFC: 0.70
Cry2 nFC: 1.62
Csrnp1 log2 nFC: 0.83
Csrnp1 nFC: 1.78
Ctla2a log2 nFC: 0.72
Ctla2a nFC: 1.65
Ctla2b log2 nFC: 0.96
Ctla2b nFC: 1.94
Cyp2d22 log2 nFC: 0.97
Cyp2d22 nFC: 1.97
Cyp2f2 log2 nFC: 0.79
Cyp2f2 nFC: 1.72
Dgkh log2 nFC: 0.84
Dgkh nFC: 1.79
Dnali1 log2 nFC: 0.73
Dnali1 nFC: 1.66
Dok4 log2 nFC: 0.74
Dok4 nFC: 1.67
Dpep1 log2 nFC: 0.71
Dpep1 nFC: 1.63
Dusp1 log2 nFC: 0.86
Dusp1 nFC: 1.82
Ednrb log2 nFC: 0.97
Ednrb nFC: 1.96
Elmod1 log2 nFC: 0.89
Elmod1 nFC: 1.86
Eng log2 nFC: 0.81
Eng nFC: 1.76
Errfi1 log2 nFC: 0.95
Errfi1 nFC: 1.93
Fabp3 log2 nFC: 0.98
Fabp3 nFC: 1.97
Fmo1 log2 nFC: 0.86
Fmo1 nFC: 1.81
Fmo2 log2 nFC: 1.00
Fmo2 nFC: 2.00
Fos log2 nFC: 1.02
Fos nFC: 2.03
Fxyd1 log2 nFC: 0.80
Fxyd1 nFC: 1.75
Fzd4 log2 nFC: 0.69
Fzd4 nFC: 1.61
Galnt15 log2 nFC: 0.89
Galnt15 nFC: 1.85
Gm26236 log2 nFC: 1.03
Gm26236 nFC: 2.04
Gm47291 log2 nFC: 0.98
Gm47291 nFC: 1.98
Gm49391 log2 nFC: 0.96
Gm49391 nFC: 1.95
Gnao1 log2 nFC: 0.85
Gnao1 nFC: 1.80
Gpm6a log2 nFC: 0.83
Gpm6a nFC: 1.78
Gpr155 log2 nFC: 0.76
Gpr155 nFC: 1.69
Gprasp1 log2 nFC: 0.72
Gprasp1 nFC: 1.64
Gpt log2 nFC: 0.73
Gpt nFC: 1.66
Gsn log2 nFC: 1.06
Gsn nFC: 2.08
Gstm1 log2 nFC: 0.75
Gstm1 nFC: 1.68
Hecw2 log2 nFC: 0.81
Hecw2 nFC: 1.75
Hlf log2 nFC: 0.89
Hlf nFC: 1.86
Igf1r log2 nFC: 0.70
Igf1r nFC: 1.63
Il6ra log2 nFC: 0.84
Il6ra nFC: 1.79
Iqca log2 nFC: 0.87
Iqca nFC: 1.83
Itga8 log2 nFC: 0.88
Itga8 nFC: 1.85
Itih4 log2 nFC: 0.88
Itih4 nFC: 1.84
Iyd log2 nFC: 1.04
Iyd nFC: 2.05
Jdp2 log2 nFC: 0.71
Jdp2 nFC: 1.64
Klf3 log2 nFC: 0.69
Klf3 nFC: 1.62
Klf4 log2 nFC: 0.72
Klf4 nFC: 1.64
Klf9 log2 nFC: 0.85
Klf9 nFC: 1.80
Klrd1 log2 nFC: 0.95
Klrd1 nFC: 1.93
Kndc1 log2 nFC: 1.05
Kndc1 nFC: 2.07
Krt23 log2 nFC: 0.69
Krt23 nFC: 1.61
Lncpint log2 nFC: 1.06
Lncpint nFC: 2.08
Lpin1 log2 nFC: 0.80
Lpin1 nFC: 1.75
Lrrc74b log2 nFC: 1.02
Lrrc74b nFC: 2.03
Ltbp4 log2 nFC: 0.81
Ltbp4 nFC: 1.76
Lyve1 log2 nFC: 0.96
Lyve1 nFC: 1.94
Map3k6 log2 nFC: 0.95
Map3k6 nFC: 1.93
Mapt log2 nFC: 0.89
Mapt nFC: 1.85
Mcf2l log2 nFC: 0.95
Mcf2l nFC: 1.93
Mettl7a1 log2 nFC: 0.80
Mettl7a1 nFC: 1.75
Mir29c log2 nFC: 0.89
Mir29c nFC: 1.85
Mir1668 log2 nFC: 0.75
Mir1668 nFC: 1.69
Mir6899 log2 nFC: 0.84
Mir6899 nFC: 1.80
Mtcl1 log2 nFC: 0.73
Mtcl1 nFC: 1.66
Ndrg2 log2 nFC: 0.88
Ndrg2 nFC: 1.84
Nek5 log2 nFC: 0.81
Nek5 nFC: 1.76
Nova2 log2 nFC: 0.90
Nova2 nFC: 1.86
Nr1d1 log2 nFC: 0.84
Nr1d1 nFC: 1.79
Nrgn log2 nFC: 1.04
Nrgn nFC: 2.05
Nrxn2 log2 nFC: 0.88
Nrxn2 nFC: 1.84
Ogn log2 nFC: 0.86
Ogn nFC: 1.82
Osgin1 log2 nFC: 0.74
Osgin1 nFC: 1.68
Pcolce2 log2 nFC: 0.98
Pcolce2 nFC: 1.97
Pcp4l1 log2 nFC: 0.75
Pcp4l1 nFC: 1.68
Phactr1 log2 nFC: 0.74
Phactr1 nFC: 1.67
Phf1 log2 nFC: 0.75
Phf1 nFC: 1.68
Pla2g1b log2 nFC: 0.79
Pla2g1b nFC: 1.72
Plxna2 log2 nFC: 0.78
Plxna2 nFC: 1.72
Ppargc1a log2 nFC: 0.86
Ppargc1a nFC: 1.82
Ppl log2 nFC: 0.87
Ppl nFC: 1.83
Prob1 log2 nFC: 0.76
Prob1 nFC: 1.70
Ptgfr log2 nFC: 0.93
Ptgfr nFC: 1.90
Pxdc1 log2 nFC: 0.83
Pxdc1 nFC: 1.78
Rapgef5 log2 nFC: 0.88
Rapgef5 nFC: 1.84
Rara log2 nFC: 0.73
Rara nFC: 1.66
Rgs9 log2 nFC: 1.01
Rgs9 nFC: 2.02
Rora log2 nFC: 0.80
Rora nFC: 1.74
S1pr4 log2 nFC: 0.94
S1pr4 nFC: 1.91
Scn3a log2 nFC: 0.75
Scn3a nFC: 1.68
Scube2 log2 nFC: 0.74
Scube2 nFC: 1.68
Sec14l3 log2 nFC: 0.69
Sec14l3 nFC: 1.62
Sec14l4 log2 nFC: 0.77
Sec14l4 nFC: 1.70
Sell log2 nFC: 1.03
Sell nFC: 2.04
Sema3g log2 nFC: 0.78
Sema3g nFC: 1.72
Sftpa1 log2 nFC: 0.70
Sftpa1 nFC: 1.62
Sgip1 log2 nFC: 0.90
Sgip1 nFC: 1.87
Sgms1 log2 nFC: 0.71
Sgms1 nFC: 1.63
Slc2a4rg-ps log2 nFC: 0.85
Slc2a4rg-ps nFC: 1.80
Slc7a10 log2 nFC: 0.97
Slc7a10 nFC: 1.96
Slc16a11 log2 nFC: 0.79
Slc16a11 nFC: 1.73
Slc43a3 log2 nFC: 0.73
Slc43a3 nFC: 1.66
Slit3 log2 nFC: 1.02
Slit3 nFC: 2.03
Snora21 log2 nFC: 0.75
Snora21 nFC: 1.68
Sntb1 log2 nFC: 0.72
Sntb1 nFC: 1.64
Sorbs1 log2 nFC: 0.70
Sorbs1 nFC: 1.62
Sorbs3 log2 nFC: 0.80
Sorbs3 nFC: 1.74
Srcin1 log2 nFC: 0.91
Srcin1 nFC: 1.87
Stard8 log2 nFC: 0.69
Stard8 nFC: 1.61
Syne1 log2 nFC: 0.70
Syne1 nFC: 1.62
